# Source: patent US20250213652A1, “COMPOSITIONS AND THEIR USE IN METHODS FOR TREATING INTESTINAL INFLAMMATION” (REVOLO BIOTHERAPEUTICS LIMITED, priority 2022, published 2025)
# Tests used:
# galectin-1 (Gal-1) = experiment: TMT quantitative proteomics of monocyte cell surface, Gal-1; assay type: cell-based; conditions: human monocytes (n=4), 1 hour
# Description: (§1) FIG. 10B provides a bar graph showing the effects of IRL201805 on CD69 ligands, galectin-1 (Gal-1) and S100A8/A9, as detected by TMT quantitative proteomics.
# (§2) The potential ligands, Gal-1 and S100A8/A9, are known to bind to CD69.43 In order to examine the expression of and influence the ability of T cells to sustain a Treg phenotype, the present study investigated the effects of 1805 on the expression of Gal-1 and S100A8/A9 in APCs (monocytes). Human monocytes isolated from healthy individuals (n=4) were exposed to 1805 for 1 hour at levels of both Gal-1 and S100A8/A9 proteins.
# (§3) The abundance of Gal-1 and S100A8/A9 protein at the cell surface were detected by tandem mass tag (TMT) quantitative proteomics.
# CD69 [1] = experiment: Surface expression of CD69 and CD39 on Tregs from PBMCs, flow cytometry; assay type: cell-based, human; conditions: 20 μg/mL, 20-72 h at 37° C., PBMCs from two healthy donors
# Experimental: FIG. 8 depicts the mean fluorescent intensity of surface expression of CD69 and CD39 on Tregs from peripheral blood mononuclear cells (PBMCs) cultured with 20 μg/mL IRL201805 for 20-72 h at 37° C.
# In the present study, PBMCs were isolated from two healthy donors. PBMCs were then incubated with IRL201805 (20 μg/mL) for 20-72 h at 37° C. Flow cytometry was used to measure mean fluorescent intensity and assess surface expression of CD69 and CD39 on Tregs from the PBMCs.
# S100A9 = experiment: Mass spec analysis of S100A9 post-translational modification in monocytes; assay type: cell-based; conditions: human monocytes
# Description: as §1, §2
# CD69 [2] = experiment: Surface CD154 and CD69 activation markers on T-lymphocytes from PBMCs; assay type: cell-based, human; conditions: 20 μg/mL, 20 hours at 37° C., PBMCs from four healthy donors, p=0.008
# Description: FIG. 11A-C provides bar graphs showing the effects of IRL201805 on the expression of surface CD154 and CD69 activation markers on T-lymphocytes from PBMCs: Tregs (FIG. 11A); effector T cells (Teffs; FIG. 11B); and CD8 T cells (FIG. 11C). Results are from PBMCs isolated from four healthy donors. Mean±SD shown. P=values represent paired sample t-test. NS=not significant.
# The present study assessed the effects of 1805 on the expression of surface CD154 and CD69 activation markers on T-lymphocytes from PBMC of Tregs, Teffs, and CD8 T cells. PBMCs isolated from four healthy donors were cultured with or without 20 μg/mL IRL201805 for 20 hours at 37° C.
# STAT5B = experiment: RNAseq gene transcript levels, STAT5B; assay type: cell-based, human; conditions: monocytes from three healthy individuals
# Experimental: (§4) FIG. 9A-B illustrates the effects of 20 µg/mL IRL201805 on JAK-STAT signaling pathway at the transcript and protein level. FIG. 9A provides the RNAseq analysis of gene transcript levels of key signaling genes involved in CD69 activation. FIG. 9B provides the immunoblot of p-STAT5 levels in cell lysates from untreated and IRL1805 treated PBMCs.
# In the present study, the effects of IRL201805 on JAK-STAT signaling pathway were assessed at the transcript and protein level. […]
# (§5) RNAseq analysis was used to assess gene transcript levels of key signaling genes involved in CD69 activation.
# C57-bl/6 mice = experiment: Dextran sulphate sodium (DSS)-induced murine model of ulcerative colitis; assay type: in vivo; conditions: 5% DSS
# Experimental: In the present study, the DDS murine model of UC will be used to evaluate the efficacy of BiP analogs such as IRL201805 (SEQ ID NO:1).
# Adult C57-bl/6 mice are randomly allocated to experimental groups and allowed to acclimatize for one week. From Day-2, treatments are administered in accordance with the administration schedule below. On Day 0, drinking water is replaced by a 5% dextran sulphate sodium (DSS) in water (excluding group 1 which remains on normal drinking water throughout). Animals are given ad libitum access to the 5% DSS solution. From Day 0 until the end of the experiment on Day 7, animals are monitored daily for clinical signs of colitis to include: bodyweight loss, loose stools and/or diarrhea and presence of occult or gross blood in the stools. […]
# From Day 0 until the end of the experiment, animals are monitored daily for clinical signs of colitis to include bodyweight loss, loose stools and/or diarrhea and presence of blood, occult or gross, in the stools.
# (§6) At termination, colon from half the animals in each group are transferred in tissue fixative, then processed for paraffin-embedding in a ‘swiss roll’ format. These samples are sectioned and stained with hematoxylin and eosin (H&E) and up to two sections per animal are scored by a qualified histopathologist according to a semi-quantitative scoring system. […]
# p-STAT5 [3] = experiment: Immunoblot of p-STAT5 in PBMC cell lysates; assay type: cell-based, human; conditions: 20 μg/mL, 24 hours, compared to untreated PBMCs
# Experimental: as §4
# (§7) In the present study, the effects of IRL201805 on JAK-STAT signaling pathway were assessed at the transcript and protein level. PBMCs were isolated from a healthy subject and treated for 24 h with 20 μg/mL IRL201805.
# Immunoblotting of PBMC cell lysates with recombinant anti-STAT5 (phospho Y694) antibody [E208] (ab32364) (Abcam, ab32364) was used to assess the p-STAT5 levels in from untreated and IRL1805 treated PBMCs.
# PBMCs = experiment: p-STAT5 status and FoxP3 in T cell subsets of treated PBMCs (Table 4); assay type: cell-based
# Description: In Tregs, CD69 is thought to promote CD39 surface expression, FoxP3 transcription, and STAT5 phosphorylation leading to STAT3 inhibition. The present study assessed the effects of IRL1805 on p-STAT5. […] Treatment of PBMCs with IRL201805 led to changes in p-STAT5 status of CD4/CD8 T cells and increased 3-fold the level of FoxP3 transcription (see Table 4).
# SOCS3 = experiment: RNAseq gene transcript levels, SOCS3; assay type: cell-based, human; conditions: 20 μg/mL, 24 hour post treatment
# Experimental: as §4, §7, §5
# RAG2−/− mice = experiment: CD4+CD45RBhigh T cell adoptive transfer murine model of intestinal inflammation; assay type: in vivo
# Description: In the present study, intestinal inflammation is initiated with syngeneic splenic CD4^+CD45RB^high T cell adoptive transfer into T and B cell deficient recipient mice.^37 The CD4^+CD45RB^high T cell population contains mainly naïve T cells primed for activation that are capable of inducing chronic small bowel and colonic inflammation. This animal model allows the modification of key experimental variables, including both innate and adaptive immune cell populations, to answer biologically relevant questions relating to disease pathogenesis. […]
# From Day 21 until the end of the experiment on Day 49, animals are monitored daily for clinical signs of colitis to include: bodyweight loss, loose stools and/or diarrhea. On Day 49, animals are culled, the colon dissected out, and colon weight and length measured. […]
# From Day 21 until the end of the experiment, animals are monitored daily for clinical signs of colitis to include bodyweight loss, loose stools and/or diarrhea.
# as §6
# p-STAT5 [4] = experiment: Colon punch biopsies from IBD patients, p-STAT5 by flow cytometry; assay type: cell-based, human; conditions: data not shown
# Experimental: (§8) In the present study, punch biopsies (2 mm^2) of inflamed and non-inflamed colon tissues were obtained from each consenting IBD patient with hospital ethical approval, as illustrated in FIG. 6A-E. Tissue biopsies were subsequently incubated for 12-14 hours with or without IRL201805 (20 μg/mL) and assessed for CD69+/CD39+ regulatory T cells (Tregs).
# [5] = system: CD69+/CD39+ regulatory T cells (Tregs); experiment: Colon punch biopsies from IBD patients, flow cytometry of CD69+/CD39+ Tregs; assay type: cell-based, human; conditions: 20 μg/mL, 12-14 hours, inflamed colonic tissue compared to non-inflamed tissue from the same patient
# Experimental: FIG. 6A-E provides an outline of the procedure used to assess the effects of human primary immune cells ex vivo within inflamed and non-inflamed colon tissue treated with IRL201805.
# as §8
# JAK3 = experiment: RNAseq gene transcript levels, JAK3; assay type: cell-based, human; conditions: 20 μg/mL, 24 hour post treatment
# Experimental: as §4, §7, §5
# STAT5A = experiment: RNAseq gene transcript levels, STAT5A; assay type: cell-based, human; conditions: monocytes from three healthy individuals
# Experimental: as §4, §7, §5
# S100A8/A9 = experiment: TMT quantitative proteomics of monocyte cell surface, S100A8/A9; assay type: cell-based; conditions: human monocytes (n=4), 1 hour
# Description: as §1, §2, §3
# STAT3 phosphorylation = STAT3 phosphorylation in human lymphocytes (previous unpublished data); assay type: cell-based
substance,measurement,setting,value
"IRL201805: a modified analog of GRP78 (BiP analog, SEQ ID NO:1) being developed for the treatment of autoimmune disease",Gal-1 expression on the cell surface,galectin-1 (Gal-1),not altered
same,duration of sustained CD69 expression on CD154- cells,CD69 [1],at least 72 h
same,increase of phosphorylation of S100A9,S100A9; 1 hour,58%
same,trimethylation post-translational modifications on threonine 113 on S100A9,S100A9; mass spec,increased trimethylation
same,increase of CD69 on the cell surface of Tregs,CD69 [2],2 fold
same,transcript levels of STAT5B,STAT5B,did not affect
same,"clinical signs of colitis (bodyweight loss, loose stools and/or diarrhea)","C57-bl/6 mice; 1 mg/kg IV Day −2, 0, 3, 6",significant reduction in clinical signs of colitis
same,histopathology severity scores,"C57-bl/6 mice; 1 mg/kg IV, colon sections H&E, Day 7",significant reduction in severity scores
same,p-STAT5 levels by immunoblot,p-STAT5 [3],increased levels
same,p-STAT5 in subsets of immune cells,PBMCs; PBMCs,increased p-STAT5
same,increase of the level of FoxP3 transcription,"PBMCs; PBMCs, versus untreated",3 fold
same,% CD4+ve,PBMCs; treated PBMCs,7.1%
same,% CD8+ve,PBMCs; treated PBMCs,3.2%
same,% FoxP3 + Tregs,PBMCs; treated PBMCs,0.9%
same,CD25hi/CD127lo Tregs,PBMCs; treated PBMCs,3.2
same,increase of SOCS3 gene transcript level,SOCS3,approximately 10 fold
same,"clinical signs of colitis (bodyweight loss, loose stools and/or diarrhea)","RAG2−/− mice; IV from Day 21, dose TBC",significant reduction in clinical signs of colitis
same,histopathology severity scores,"RAG2−/− mice; T cell transfer colitis, colon sections H&E, Day 49",significant reduction in severity scores
same,p-STAT5 in subsets of immune cells by flow cytometry,p-STAT5 [4],increased p-STAT5
same,increase in double positive CD69+/CD39+ Tregs,[5],20%
same,increase of JAK3 gene transcript level,JAK3,approximately 10 fold
same,transcript levels of STAT5A,STAT5A,did not affect
same,S100A8/A9 expression on the cell surface,S100A8/A9,not altered
binding immunoglobulin protein [BiP],STAT3 phosphorylation,STAT3 phosphorylation,inhibit STAT3 phosphorylation
